Experimental data published in ChEMBL document CHEMBL1153462, “Ulmosides A and B: flavonoid 6-C-glycosides from Ulmus wallichiana, stimulating osteoblast differentiation assessed by alkaline phosphatase” (Bioorg Med Chem Lett, 2009).
Calls of active or inactive are those of the source. The calls are words filed in the database; no cut-off is given here.

Columns and labels:
Calvarial cell = assay: Osteogenic activity in neonatal Sprague-Dawley rat calvarial cell culture assessed as stimulation of differentiation; assay type: functional, cell-based
Osteoblast = assay: Osteogenic activity in neonatal Sprague-Dawley rat osteoblasts assessed as stimulation of alkaline phosphatase activity at 100 pM to 10 nM; assay type: functional, cell-based

| Activity (Osteoblast) | Compound | Activity (Calvarial cell) |
| --- | --- | --- |
| Active | O=c1c(O)c(-c2ccc(O)c(O)c2)oc2cc(O)c([C@@H]3O[C@H](CO)[C@@H](O)[C@H](O)[C@H]3O)c(O)c12 | Active |
| Active | O=C1c2c(cc(O)c([C@@H]3O[C@H](CO)[C@@H](O)[C@H](O)[C@H]3O)c2O)O[C@@H](c2ccc(O)cc2)[C@@H]1O | Active |
| Active | O=C1c2c(cc(O)c([C@@H]3O[C@H](CO)[C@@H](O)[C@H](O)[C@H]3O)c2O)O[C@@H](c2ccc(O)c(O)c2)[C@@H]1O | Active |
| Active | O=C1C[C@H](c2ccc(O)cc2)Oc2cc(O)c([C@@H]3O[C@H](CO)[C@@H](O)[C@H](O)[C@H]3O)c(O)c21 | Active |
